As a reminder, the IC50 is the concentration at which inhibition is half-maximal. The low end stands for inhibition by little substance, the high end for a need for much substance. As usually defined, the melting point is the temperature of the solid-liquid transition.

The first series deals with T1, substance P receptor (Homo sapiens, UniProt P25103).
T1 construct: The receptor was prepared from human lymphoblast cells (IM-9); endogenous in cells; host or cells: IM-9 human lymphoblast cells (membrane preparation)
T1 sequence (P25103 whole entry): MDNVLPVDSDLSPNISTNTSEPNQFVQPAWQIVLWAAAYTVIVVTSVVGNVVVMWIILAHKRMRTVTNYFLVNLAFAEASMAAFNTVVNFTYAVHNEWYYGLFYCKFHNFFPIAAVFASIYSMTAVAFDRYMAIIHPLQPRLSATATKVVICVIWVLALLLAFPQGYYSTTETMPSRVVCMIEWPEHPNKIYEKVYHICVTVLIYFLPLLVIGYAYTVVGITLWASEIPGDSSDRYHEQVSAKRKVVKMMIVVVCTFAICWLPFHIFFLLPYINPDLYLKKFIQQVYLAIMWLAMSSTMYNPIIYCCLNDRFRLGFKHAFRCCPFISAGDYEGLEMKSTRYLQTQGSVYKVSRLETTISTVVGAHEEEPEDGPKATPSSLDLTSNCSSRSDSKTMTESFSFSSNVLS
In words: Radioligand receptor binding inhibitory activity using receptor from human lymphoblast cells (IM-9). Particulars: 125I-BHSP radioligand, receptor from IM-9 cells, 25° C. for 30 minutes. The procedure: Radioligand receptor binding inhibitory activity Binding inhibitory activity using receptor from human lymphoblast cells (IM-9)
The receptor was prepared from human lymphoblast cells (IM-9). IM-9 cells (2×10^5 cells/ml) were inoculated and incubated for 3 days (one liter), which was then subjected to centrifuge for 5 minutes at 500×g to obtain cell pellets. […] The residue was washed twice with 30 ml of the above-mentioned buffer, which was then preserved frozen (−80° C.) as a specimen of the receptor.
The specimen was suspended in a reaction buffer (50 mM Tri-HCl buffer (pH 7.4), 0.02% bovine serum albumin, 1 mM phenylmethylsulfonyl fluoride, […], […] bacitracin, 3 mM manganese chloride) and 100 ul portion was the suspension was used in the reaction. […] The amount of nonspecific binding was determined by adding substance P at a final concentration of 2×10^−6M. After the reaction, using a cell harvester (290 PHD, Cambridge Technology, Inc, U.S.A.), rapid filtration was carried out through a glass filter (GF/B, Whatman, U.S.A.) to stop the reaction. After washing three times with 250 ul of 50 mM of Tris-HCl buffer (pH 7.4) containing 0.02% bovine serum albumin, the radioactivity remaining on the filter was determined with a gamma counter. Before use, the filter was immersed in 0.1% polyethyleneimine for 24 hours and air-dried.
Turning to `CCC1CCn2c(c(-c3ccc(C)cc3)c3cccnc3c2=O)C(=O)N(Cc2cc(C(F)(F)F)cc(C(F)(F)F)c2)C1` (racemic) [Example 15, (±)-7-[3,5-bis(trifluoromethyl)benzyl]-9-ethyl-6,7,8,9,10,11-hexahydro-5-(4-methylphenyl)-6,13-dioxo-13H-[1,4]diazosino[2,1-g][1,7]napththylidine], the IC50 stood at 1.1 nM. In other words, the single-digit nanomolar range. Still for that read-out and setting: the same measure for `CC1CCn2c(c(-c3ccccc3)c3cccnc3c2=O)C(=O)N(Cc2cc(C(F)(F)F)cc(C(F)(F)F)c2)C1` (racemic) [Reference Example 69, (+/−)-7-[3,5-Bis(trifluoromethyl)benzyl]-6,7,8,9,10,11-hexahydro-9-methyl-6,13-dioxo-5-phenyl-13H-[1,4]diazocino[2,1-g][1,7]naphthyridine]: 0.88 nM; for `CCOc1cc(CN2C[C@H](C)CCn3c(c(-c4ccc(C)cc4)c4cccnc4c3=O)C2=O)cc(OCC)c1` [Example 3, (9R)-7-(3,5-diethoxybenzyl)-6,7,8,9,10,11-hexahydro-9-methyl-5-(4-methylphenyl)-6,13-dioxo-13H-[1,4]diazosino[2,1-g][1,7]napththylidine]: 0.69 nM. Still for that read-out and setting: the same measure for `Cc1ccc(-c2c3n(c(=O)c4ncccc24)CC[C@@H](C)CN(Cc2cc(OC(C)C)cc(OC(C)C)c2)C3=O)cc1` [Example 4, (9R)-7-[3,5-di(1-methylethyloxy)benzyl)-6,7,8,9,10,11-hexahydro-9-methyl-5-(4-methylphenyl)-6,13-dioxo-13H-[1,4]diazosino[2,1-g[]1,7]napththylidine]: 0.17 nM; for `C[C@@H]1CCn2c(c(-c3ccc(Cl)cc3)c3cccnc3c2=O)C(=O)N(Cc2cc(C(F)(F)F)cc(C(F)(F)F)c2)C1` [Example 6, (9R)-7-[3,5-bis(trifluoromethyl)benzyl]-5-(4-chlorophenyl)-6,7,8,9,10,11-hexahydro-9-methyl-6,13-dioxo-13H-[1,4]diazosino[2,1-g][1,7]napththylidine]: 0.13 nM; for `C[C@@H]1CCn2c(c(-c3ccc(Cl)c(Cl)c3)c3cccnc3c2=O)C(=O)N(Cc2cc(C(F)(F)F)cc(C(F)(F)F)c2)C1` [Example 7]: 0.83 nM. Consider `C[C@@H]1CCn2c(c(-c3ccc(F)cc3)c3cccnc3c2=O)C(=O)N(Cc2cc(C(F)(F)F)cc(C(F)(F)F)c2)C1` [Example 14, (9R)-7-[3,5-bis(trifluoromethyl)benzyl]-5-(4-fluorophenyl)-6,7,8,9,10,11-hexahydro-9-methyl-6,13-dioxo-13H-[1,4]diazosino[2,1-g][1,7]napththylidine], for which the IC50 worked out at 0.37 nM. Against the preceding compound, the IC50 is about 2.2-fold lower. The same measure, in the same setting: for `Cc1ccc(-c2c3c(c(=O)n4c2C(=O)N(Cc2cc(C(F)(F)F)cc(C(F)(F)F)c2)CCCC4)CN(C)CC3)cc1` [Reference Example 64, 7-[3,5-Bis(trifluoromethyl)benzyl]-1,2,3,4,6,7,8,9,10,11-decahydro-2-methyl-5-(4-methylphenyl)-6,13-dioxo-13H-[1,4]diazocino[1,2-b][2,7]naphthyridine] the value was 0.66 nM; for `Cc1cnc2c(c1-c1ccccc1)C(=O)N(Cc1cc(C(F)(F)F)cc(C(F)(F)F)c1)CCCO2` [Reference Example 78], 1.6 nM. The compound `CN1CCN(Cc2cc(-c3ccccc3)c3c(n2)OCCN(Cc2cc(C(F)(F)F)cc(C(F)(F)F)c2)C3=O)CC1` [Reference Example 101, 4-[3,5-Bis(trifluoromethyl)benzyl]-2,3,4,5-tetrahydro-8-(N-methylpiperazinomethyl)-5-oxo-6-phenylpyrido[3,2-f][1,4]oxazepine] displayed a half-maximal inhibitory concentration (IC50) of 0.2 nM.

Tested on in the next series: not given
Test: not given
Conditions: not given
As to `CCC1CCn2c(c(-c3ccc(C)cc3)c3cccnc3c2=O)C(=O)N(Cc2cc(C(F)(F)F)cc(C(F)(F)F)c2)C1` (racemic) [Example 15, (±)-7-[3,5-bis(trifluoromethyl)benzyl]-9-ethyl-6,7,8,9,10,11-hexahydro-5-(4-methylphenyl)-6,13-dioxo-13H-[1,4]diazosino[2,1-g][1,7]napththylidine], the melting point fell in the range of 258 to 260 °C. Take `CC1CCn2c(c(-c3ccccc3)c3cccnc3c2=O)C(=O)N(Cc2cc(C(F)(F)F)cc(C(F)(F)F)c2)C1` (racemic) [Reference Example 69, (+/−)-7-[3,5-Bis(trifluoromethyl)benzyl]-6,7,8,9,10,11-hexahydro-9-methyl-6,13-dioxo-5-phenyl-13H-[1,4]diazocino[2,1-g][1,7]naphthyridine]: the melting point lay within 257 to 258 °C. Turning to `CN(C)C(=O)c1cc(-c2ccccc2)c2c(n1)OCCN(Cc1cc(C(F)(F)F)cc(C(F)(F)F)c1)C2=O` [Reference Example 113, 4-[3,5-Bis(trifluoromethyl)benzyl]-N,N-dimethyl-2,3,4,5-tetrahydro-5-oxo-6-phenylpyrido[3,2-f][1,4]oxazepine-8-carboxamide], the melting point was in the range of 235 to 236 °C. `CCCCNC(=O)c1cc(-c2ccccc2)c2c(n1)OCCN(Cc1cc(C(F)(F)F)cc(C(F)(F)F)c1)C2=O` [Reference Example 114, 4-[3,5-Bis(trifluoromethyl)benzyl]-N-n-butyl-2,3,4,5-tetrahydro-5-oxo-6-phenylpyrido[3,2-f][1,4]oxazepine-8-carboxamide] had a melting point of 194 to 196 °C. As for `O=C(c1cc(-c2ccccc2)c2c(n1)OCCN(Cc1cc(C(F)(F)F)cc(C(F)(F)F)c1)C2=O)N1CCCCC1` [Reference Example 115, 4-[3,5-Bis(trifluoromethyl)benzyl]-2,3,4,5-tetrahydro-5-oxo-6-phenyl-8-piperidinocarbonylpyrido[3,2-f][1,4]oxazepine], the melting point is 218 to 220 °C. Still for that read-out and setting: the same measure for `O=C(c1cc(-c2ccccc2)c2c(n1)OCCN(Cc1cc(C(F)(F)F)cc(C(F)(F)F)c1)C2=O)N1CCOCC1` [Reference Example 116, 4-[3,5-Bis(trifluoromethyl)benzyl]-2,3,4,5-tetrahydro-8-morpholinocarbonyl-5-oxo-6-phenylpyrido[3,2-f][1,4]oxazepine]: 265 to 266 °C; for `COc1cc(CN2CCOc3nccc(-c4ccccc4)c3C2=O)cc(OC)c1OC` [Reference Example 118, 2,3,4,5-Tetrahydro-5-oxo-6-phenyl-4-(3,4,5-trimethoxybenzyl)pyrido[3,2-f][1,4]oxazepine]: 177 to 179 °C; for `O=C1c2c(-c3ccccc3)ccnc2OCCN1Cc1ccc(Cl)c(Cl)c1` [Reference Example 119, 4-(3,4-Dichlorobenzyl)-2,3,4,5-tetrahydro-5-oxo-6-phenylpyrido[3,2-f][1,4]oxazepine]: 189 to 192 °C.

Compound `COc1ccc(CN2CCOc3nccc(-c4ccccc4)c3C2=O)cc1OC` [Reference Example 120, 4-(3,4-Dimethoxybenzyl)-2,3,4,5-tetrahydro-5-oxo-6-phenylpyrido[3,2-f][1,4]oxazepine] returned a melting point of 175 to 176 °C.

As to `O=C1c2c(-c3ccccc3)ccnc2OCCN1Cc1ccccc1` [Reference Example 121, 4-Benzyl-2,3,4,5-tetrahydro-5-oxo-6-phenylpyrido[3,2-f][1,4]oxazepine], the melting point was 209 to 211 °C. Still for that read-out and setting: the same measure for `COc1cc(CN2CCCOc3nccc(-c4ccccc4)c3C2=O)cc(OC)c1OC` [Reference Example 122, 2,3,4,5-Tetrahydro-6-oxo-7-phenyl-5-(3,4,5-trimethoxybenzyl)-6H-pyrido[2,3-b][1,5]oxazocine]: 155 to 156 °C.

In the case of `C[C@@H]1COc2nccc(-c3ccccc3)c2C(=O)N(Cc2ccccc2)C1` [Reference Example 123, (S)-5-Benzyl-2,3,4,5-tetrahydro-3-methyl-6-oxo-7-phenyl-6H-pyrido[2,3-b][1,5]oxazocine], the melting point is 139 to 141 °C. As for `C[C@H]1COc2nccc(-c3ccccc3)c2C(=O)N(Cc2ccccc2)C1` [Reference Example 124, (R)-5-Benzyl-2,3,4,5-tetrahydro-3-methyl-6-oxo-7-phenyl-6H-pyrido[2,3-b][1,5]oxazocine], the melting point lay within 139 to 140 °C. Take `C[C@@H]1COc2nccc(-c3ccccc3)c2C(=O)N(Cc2cc(C(F)(F)F)cc(C(F)(F)F)c2)C1` [Reference Example 125, (S)-5-[3,5-Bis(trifluoromethyl)benzyl]-2,3,4,5-tetrahydro-3-methyl-6-oxo-7-phenyl-6H-pyrido[2,3-b][1,5]oxazocine]: the melting point is 142 to 143 °C. On the same count and under the same terms, for `C[C@H]1COc2nccc(-c3ccccc3)c2C(=O)N(Cc2cc(C(F)(F)F)cc(C(F)(F)F)c2)C1` [Reference Example 126, (R)-5-[3,5-Bis(trifluoromethyl)benzyl]-2,3,4,5-tetrahydro-3-methyl-6-oxo-7-phenyl-6H-pyrido[2,3-b][1,5]oxazocine] the value was 142 to 143 °C; for `Cc1ccc(-c2ccnc3c2C(=O)N(Cc2ccccc2)CCO3)cc1` [Reference Example 133, 4-Benzyl-2,3,4,5-tetrahydro-5-oxo-6-(4-methylphenyl)pyrido[3,2-f][1,4]oxazepine], 203 to 204 °C; for `Cc1ccc(-c2ccnc3c2C(=O)N(Cc2cc(C(F)(F)F)cc(C(F)(F)F)c2)CCO3)cc1` [Reference Example 134, 4-[3,5-Bis(trifluoromethyl)benzyl]2,3,4,5-tetrahydro-5-oxo-6-(4-methylphenyl)pyrido[3,2-f][1,4]oxazepine], 212 to 213 °C. The same measure, in the same setting: for `Cc1ccc(-c2ccnc3c2C(=O)N(Cc2ccccc2)C[C@H](C)CO3)cc1` [Reference Example 135, (S)-5-Benzyl-2,3,4,5-tetrahydro-3-methyl-7-(4-methylphenyl)-6-oxo-6H-pyrido[2,3-b][1,5]oxazocine] the value was 148 to 149 °C; for `Cc1ccc(-c2ccnc3c2C(=O)N(Cc2cc(C(F)(F)F)cc(C(F)(F)F)c2)C[C@H](C)CO3)cc1` [Reference Example 136, (S)-5-[3,5-Bis(trifluoromethyl)benzyl]2,3,4,5-tetrahydro-3-methyl-7-(4-methylphenyl)-6-oxo-6H-pyrido[2,3-b][1,5]oxazocine], 159 to 160 °C.
